From paper PMC11675580, “Supersaturated Gel Formulation (SGF) of Atorvastatin at a Maximum Dose of 80 mg with Enhanced Solubility, Dissolution, and Physical Stability” (Gels, 2024)

Assay: Drug release kinetics (first-order fit)
Format: physicochemical
Description: The drug release data was fitted to kinetic models of first-order, and the coefficient of determination (r^2) was indicative of best-fit model to describe drug release kinetics.

## CC(C)c1c(C(=O)Nc2ccccc2)c(-c2ccccc2)c(-c2ccc(F)cc2)n1CC[C@@H](O)C[C@@H](O)CC(=O)O [ATR, Atorvastatin calcium trihydrate]
Water, release data until 30 min
  Drug release rate constant (first-order rate constant, K1): 1.092
pH 1.2, release data until 30 min
  Drug release rate constant (first-order rate constant, K1): 0.608
pH 4.0, release data until 30 min
  Drug release rate constant (first-order rate constant, K1): 0.752
pH 6.8, release data until 30 min
  Drug release rate constant (first-order rate constant, K1): 1.040
